Source: US12018023B2 (NERVIANO MEDICAL SCIENCES S.R.L., priority 2018, dated 2024)

Key:
Format in all cases: biochemical
IDH1^R132C = target: T1, IDH1^R132C (Homo sapiens, UniProt O75874, R132C); test: NADPH depletion assay, IDH1 R132C
T1 construct: purchased not specified
How it was run: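 Fluorescence readout (Ex544/Em590) of NADPH left after diaphorase/resazurin addition. Alpha-ketoglutarate 0.14 mM final, enzyme 2 nM final; compound preincubation 15 min, then 60 min reaction, both at room temperature, pH 7.6 Tris buffer.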

[1] = target: T2, IDH1^R132H homodimer enzyme (Homo sapiens, UniProt O75874, R132H); test: NADPH depletion assay, IDH1 R132H
T2 construct: purchased not specified
How it was run: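 IDH1 R132H enzyme (8 nM as diluted) in Tris-HCl pH 7.6 with 10 mM MgCl2, 0.001% Triton X-100 and 4 mM β-mercaptoethanol is preincubated 15 min at RT with compound. Substrate mix (12 uM NADPH, 3.4 mM α-ketoglutarate) is added for 60 min; remaining NAD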

IDH2^R172K = target: T3, IDH2^R172K (Homo sapiens, UniProt P48735, R172K); test: NADPH depletion assay, IDH2 R172K
T3 construct: purchased not specified
T3 sequence (P48735 40-452 R172K): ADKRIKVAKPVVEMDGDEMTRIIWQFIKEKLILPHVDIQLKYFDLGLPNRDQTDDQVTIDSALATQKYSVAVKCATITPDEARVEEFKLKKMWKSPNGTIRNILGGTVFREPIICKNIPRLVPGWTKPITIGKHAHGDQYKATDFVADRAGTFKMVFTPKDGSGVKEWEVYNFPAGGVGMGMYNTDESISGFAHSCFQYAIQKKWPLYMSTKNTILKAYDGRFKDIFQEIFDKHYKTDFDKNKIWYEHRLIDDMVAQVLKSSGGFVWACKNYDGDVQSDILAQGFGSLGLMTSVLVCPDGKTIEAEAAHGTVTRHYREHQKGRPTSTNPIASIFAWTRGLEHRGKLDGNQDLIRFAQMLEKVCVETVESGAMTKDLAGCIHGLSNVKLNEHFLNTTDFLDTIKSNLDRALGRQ
Protocol: IDH mutated enzyme activity converting alpha-ketoglutarate to 2-hydroxyglutaric acid is measured using a NADPH depletion assay. In the assay the remaining cofactor is measured at the end of the reaction with the addition of a catalytic excess of diaphorase and resazurin, to generate a fluorescent signal in proportion to the amount of NADPH remaining. IDH1 WT enzyme as well as mutated isoforms IDH1^R132H, IDH1^R132C, and IDH^2R172K enzymes are commercially available proteins (see e.g. Sino Biological, Abcam, Active Motif or Creative BioMart).
IDH1^R132H homodimer enzyme are diluted to 8 nM, in 10 μL of Assay Buffer (150 mM NaCl, 50 mM Tris-HCl pH 7.6, 10 mM MgCl2, 0.001% Triton X-100, 4 mM β-mercaptoethanol); 0.2 uL of test compound, previously serially diluted 1 to 3, >10 experimental points from 1 mM in DMSO, is added and the mixture is incubated for 15 minutes at room temperature. The reaction is started with the addition of 10 μL of Substrate Mix (12 uM NADPH, 3.4 mM alpha-ketoglutarate in Assay Buffer) and the mixture is incubated for 60 minutes at room temperature. The reaction is terminated with the addition of 5 μl of Detection Buffer (100 μg/mL diaphorase, 30 μM resazurin, in IX Assay Buffer), and is incubated for 15 minute before reading on a ViewLux as platereader at Ex544/Em590.
Compounds are assayed for their activity against IDH2^R172K following the same assay as above with the following modifications: IDH2^R172K and alpha-ketoglutarate final concentrations in the Assay Buffer is 16 nM and 0.55 mM, respectively.

T2 sequence (O75874 whole entry R132H): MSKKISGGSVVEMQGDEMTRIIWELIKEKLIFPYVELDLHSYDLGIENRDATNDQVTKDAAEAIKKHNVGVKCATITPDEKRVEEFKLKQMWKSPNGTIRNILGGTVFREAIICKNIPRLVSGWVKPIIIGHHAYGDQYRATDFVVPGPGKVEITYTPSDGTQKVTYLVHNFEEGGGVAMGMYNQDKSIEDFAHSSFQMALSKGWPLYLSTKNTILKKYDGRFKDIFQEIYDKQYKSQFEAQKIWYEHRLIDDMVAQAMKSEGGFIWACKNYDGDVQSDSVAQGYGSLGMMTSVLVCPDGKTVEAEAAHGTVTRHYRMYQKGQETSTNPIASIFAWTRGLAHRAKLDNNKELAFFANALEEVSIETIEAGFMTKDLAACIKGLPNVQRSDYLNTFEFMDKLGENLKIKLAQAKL
T1 sequence (O75874 whole entry R132C): as the sequence (O75874 whole entry R132H) above, with H132C counted along it

| Structure (SMILES) | IC50 (IDH1^R132C) | IC50 [1] | IC50 (IDH2^R172K) |
| --- | --- | --- | --- |
| COC(=O)c1ccc([C@H](C)Nc2ncc3ccc(=O)n(Cc4ccc(F)cc4)c3n2)cc1 [cpd 6, methyl 4-[(1S)-1-{[8-(4-fluorobenzyl)-7-oxo-pyrido[2,3-d]pyrimidin-2-yl]amino}ethyl]benzoate] | 1.34 µM | 3.34 µM | 6.65 µM |
| COC(=O)c1ccc([C@H](C)Nc2ncc3ccc(=O)n(CC(C)(C)C)c3n2)cc1 [cpd 11, methyl 4-[(1S)-1-{[8-(2,2-dimethylpropyl)-7-oxo-pyrido[2,3-d]pyrimidin-2-yl]amino}ethyl]benzoate] | 0.181 µM | 0.362 µM | 6.1 µM |
| CCn1c(=O)ccc2cnc(N[C@@H](C)C3CCCCC3)nc21 [cpd 12, 2-{[(1S)-1-cyclohexylethyl]amino}-8-ethylpyrido[2,3-d]pyrimidin-7(8H)-one] | 1.78 µM | 3.48 µM | 5.02 µM |
| CCn1c(=O)ccc2cnc(N[C@@H](C)c3ccc(Cl)cc3)nc21 [cpd 14, 2-{[(1S)-1-(4-chlorophenyl)ethyl]amino}-8-ethylpyrido[2,3-d]pyrimidin-7(8H)-one] | 0.85 µM | 1.74 µM | 5.73 µM |
| CC(C)Cn1c(=O)ccc2cnc(N[C@@H](C)c3ccc(Cl)cc3)nc21 [cpd 19, 2-{[(1S)-1-(4-chlorophenyl)ethyl]amino}-8-(2-methylpropyl)pyrido[2,3-d]pyrimidin-7(8H)-one] | 0.203 µM | 0.41 µM | 6.68 µM |
| C[C@H](Nc1ncc2ccc(=O)n(CC3CC3)c2n1)c1ccc(Cl)cc1 [cpd 20, 2-{[(1S)-1-(4-chlorophenyl)ethyl]amino}-8-(cyclopropylmethyl)pyrido[2,3-d]pyrimidin-7(8H)-one] | 0.332 µM | 0.74 µM | 5.02 µM |
| C[C@H](Nc1ncc2ccc(=O)n(Cc3ccc(OC(F)(F)F)cc3)c2n1)c1ccc(Cl)cc1 [cpd 26, 2-{[(1S)-1-(4-chlorophenyl)ethyl]amino}-8-[4-(trifluoromethoxy)benzyl]pyrido[2,3-d]pyrimidin-7(8H)-one] | 1.26 µM | 2.36 µM | 2.2 µM |
| C[C@H](Nc1ncc2ccc(=O)n(Cc3ccc(C#N)cc3)c2n1)c1ccc(Cl)cc1 [cpd 27, 4-{[2-{[(1S)-1-(4-chlorophenyl)ethyl]amino}-7-oxopyrido[2,3-d]pyrimidin-8(7H)-yl]methyl}benzonitrile] | 0.336 µM | 1.07 µM | 2.6 µM |
| C[C@H](Nc1ncc2ccc(=O)n(CC(C)(C)C)c2n1)c1ccc(Br)cc1 [cpd 34, 2-{[(1S)-1-(4-bromophenyl)ethyl]amino}-8-(2,2-dimethylpropyl)pyrido[2,3-d]pyrimidin-7(8H)-one] | 0.135 µM | 0.219 µM | 3.35 µM |
| C[C@H](Nc1ncc2ccc(=O)n(CC(C)(C)CO)c2n1)c1ccc(Br)cc1 [cpd 35, 2-{[(1S)-1-(4-bromophenyl)ethyl]amino}-8-(3-hydroxy-2,2-dimethylpropyl)pyrido[2,3-d]pyrimidin-7(8H)-one] | – | 0.211 µM | 5.05 µM |
| COC(=O)C(C)(C)Cn1c(=O)ccc2cnc(N[C@@H](C)c3ccc4ccccc4c3)nc21 [cpd 37, methyl 2,2-dimethyl-3-[2-{[(1S)-1-(naphthalen-2-yl)ethyl]amino}-7-oxopyrido[2,3-d]pyrimidin-8(7H)-yl]propanoate] | 0.805 µM | 1.48 µM | 4.85 µM |
| CCC(C)n1c(=O)ccc2cnc(N[C@@H](C)c3ccc(CN4CCCC(F)(F)C4)cc3)nc21 (stereo partly drawn) [cpd 61, 8-(butan-2-yl)-2-{[(1S)-1-{4-[(3,3-difluoropiperidin-1-yl)methyl]phenyl}ethyl]amino}pyrido[2,3-d]pyrimidin-7(8H)-one] | 0.038 µM | 0.071 µM | 5.02 µM |
| CC(C)[C@H](C)n1c(=O)ccc2cnc(N[C@@H](C)c3ccc(-c4ccnc(C(F)(F)F)c4)cn3)nc21 [cpd 196, 8-[(2S)-3-methylbutan-2-yl]-2-({(1S)-1-[2′-(trifluoromethyl)-3,4′-bipyridin-6-yl]ethyl}amino)pyrido[2,3-d]pyrimidin-7(8H)-one] | 0.141 µM | 0.955 µM | – |
| CC(C)[C@H](C)n1c(=O)ccc2cnc(N[C@@H](C)c3ccc(-c4ccnc(F)c4)cn3)nc21 [cpd 197, 2-{[(1S)-1-(2′-fluoro-3,4′-bipyridin-6-yl)ethyl]amino}-8-[(2S)-3-methylbutan-2-yl]pyrido[2,3-d]pyrimidin-7(8H)-one] | 0.405 µM | 2.34 µM | – |
| C=CC(=O)N1CCN(Cc2ccc([C@H](C)Nc3nc(OCC)c4ccc(=O)n(CC(C)(C)C)c4n3)cc2)CC1 [cpd 201, 2-{[(1S)-1-{4-[(4-acryloylpiperazin-1-yl)methyl]phenyl}ethyl]amino}-8-(2,2-dimethylpropyl)-4-ethoxypyrido[2,3-d]pyrimidin-7(8H)-one] | 0.173 µM | 0.42 µM | – |
| C=CC(=O)N1CCN(Cc2ccc([C@H](C)Nc3nc(NC)c4ccc(=O)n(CC(C)(C)C)c4n3)cc2)CC1 [cpd 202, 2-{[(1S)-1-{4-[(4-acryloylpiperazin-1-yl)methyl]phenyl}ethyl]amino}-8-(2,2-dimethylpropyl)-4-(methylamino) pyrido[2,3-d]pyrimidin-7(8H)-one] | 0.104 µM | 0.666 µM | – |

Second part, the compound after the results:

| IC50 (IDH1^R132C) | IC50 [1] | IC50 (IDH2^R172K) | Structure (SMILES) |
| --- | --- | --- | --- |
| 0.46 µM | 1 µM | 2.7 µM | C[C@H](Nc1ncc2ccc(=O)n(Cc3ccccc3)c2n1)c1ccc(Cl)cc1 [cpd 16, 8-benzyl-2-{[(1S)-1-(4-chlorophenyl)ethyl]amino}pyrido[2,3-d]pyrimidin-7(8H)-one] |
| 0.195 µM | 0.451 µM | 2.99 µM | C[C@H](Nc1ncc2ccc(=O)n(Cc3ccccc3F)c2n1)c1ccc(Cl)cc1 [cpd 22, 2-{[(1S)-1-(4-chlorophenyl)ethyl]amino}-8-(2-fluorobenzyl)pyrido[2,3-d]pyrimidin-7(8H)-one] |
| 0.891 µM | 2.09 µM | 3.49 µM | C[C@H](Nc1ncc2ccc(=O)n(Cc3ccc(F)c(F)c3)c2n1)c1ccc(Cl)cc1 [cpd 23, 2-{[(1S)-1-(4-chlorophenyl)ethyl]amino}-8-(3,4-difluorobenzyl)pyrido[2,3-d]pyrimidin-7(8H)-one] |
| 1.72 µM | 3.53 µM | 2.96 µM | C[C@H](Nc1ncc2ccc(=O)n(Cc3cccc(C(F)(F)F)c3)c2n1)c1ccc(Cl)cc1 [cpd 24, 2-{[(1S)-1-(4-chlorophenyl)ethyl]amino}-8-[3-(trifluoromethyl)benzyl]pyrido[2,3-d]pyrimidin-7(8H)-one] |
| 0.59 µM | 1.48 µM | 2.51 µM | C[C@H](Nc1ncc2ccc(=O)n(Cc3ccc(F)cc3)c2n1)c1ccc(Cl)cc1 [cpd 28, 2-{[(1S)-1-(4-chlorophenyl)ethyl]amino}-8-(4-fluorobenzyl)pyrido[2,3-d]pyrimidin-7(8H)-one] |
| 0.406 µM | 1.34 µM | 2.52 µM | COc1cccc(Cn2c(=O)ccc3cnc(N[C@@H](C)c4ccc(Cl)cc4)nc32)c1 [cpd 30, 2-{[(1S)-1-(4-chlorophenyl)ethyl]amino}-8-(3-methoxybenzyl)pyrido[2,3-d]pyrimidin-7(8H)-one] |
| 0.147 µM | 0.323 µM | 2.2 µM | C[C@H](Nc1ncc2ccc(=O)n(Cc3c(F)cccc3F)c2n1)c1ccc(Cl)cc1 [cpd 31, 2-{[(1S)-1-(4-chlorophenyl)ethyl]amino}-8-(2,6-difluorobenzyl)pyrido[2,3-d]pyrimidin-7(8H)-one] |
